Assay results from patent publication US10939680B2, “Herbicidal composition” (priority 2014, dated 2021).

What was measured:
[1] = system: blackgrass (Alopecurus myosuroides); assay: Efficiency test of the herbicidal composition on blackgrass in field crops; type: in vivo; conditions: for percentage of weeds eliminated, Trial No. ALS12H48 -05: 44 DAA; for percentage of weeds eliminated, Trial No. ALS11H56-01: 50 DAA; for Maximum percentage of weeds eliminated: maximum of the trials; for Maximum percentage of weeds eliminated / Minimum percentage of weeds eliminated: 44-50 DAA; for Minimum percentage of weeds eliminated: minimum of the trials
Procedure: Trials were also carried out to show the efficiency of the herbicidal composition referred to in the invention on a second weed called blackgrass. This plant is an annual plant and has traditionally been seen as a weed in cultivated fields.
The composition was tested on crops including crops of beetroot (Sugar beet, Beta vulgaris), oilseed rape (OSR, Brassica napus).
The same compounds that were used in Example 1 were evaluated for efficiency.
In the same manner as for Example 1, different trials were carried out in different fields, in each which a plant of interest was cultivated.
In this example, tests were carried out on two plots of oilseed rape, on the one hand, and in a lot of beetroot on the other hand.
The efficiency of different products and the herbicidal composition referred to in the invention have been evaluated at different intervals following the application (DAA) of the aforementioned products onto the crop in question.
For example, the efficiency of products has been measured at 44, 46 and 50 days following application of the products.

[2] = system: rye-grass (Lolium multiflorum); assay: Efficiency test of the herbicidal composition on rye-grass in oilseed rape fields; type: in vivo; conditions: for percentage of weeds eliminated, Trial ALS11H56-02 / percentage of weeds eliminated, Trial ALS11H56-04 / percentage of weeds eliminated, Trial ALS12H56-03: crop OSR; for percentage of weeds eliminated, Trial ALS11H56-02 / percentage of weeds eliminated, Trial ALS11H56-04: 53 DAA; for percentage of weeds eliminated, Trial ALS12H56-03: 58 DAA; for Maximum percentage of weeds eliminated: maximum of three OSR trials; for Maximum percentage of weeds eliminated / Minimum percentage of weeds eliminated: 53-58 DAA; for Minimum percentage of weeds eliminated: minimum of three OSR trials
Source text: This plant, also called […] or Italian rye-grass (Lolium multiflorum) is traditionally considered to be a pest.
The composition has been tested on different parcels of oilseed rape (OSR for Oilseed rape, Brassica napus).
Findings relating to damages caused by the different compounds that were trialed are set out in percentages of weeds eliminated from 0 to 100% with respect to a trialed lot in which no herbicidal treatment was applied. The number, 0, corresponds to no observed damage to weeds whereas the number, 100, corresponds to an elimination of the entirety of the weeds.
Further, a volume of 0.8 L of the aforementioned composition has been applied per hectare to the treated lot.
Quizalofop-p-ethyl and flauzifop-p-butyl belong to the aryloxyphenoxypropionate family. A volume of 1.2 L of quizalofop-p-ethyl per hectare and a volume of 1.5 L of flauzifop-p-butyl per hectare have respectively been applied.
The compositions—ALSNC10HCLQ01 0.8 and Q+C 1:1 (0.4-0.5 liters per hectare) and quizalofop-p-ethyl (1.2 liters per hectare) which were tested have been diluted, prior to their application, in 1 L of adjuvant oil (Actirob).
Different trials have been conducted in different fields where oilseed rape (OSR) is grown. The efficiency of different products and of the herbicidal composition referred to in the invention have been evaluated at different time intervals following the application of the said products to the crop in question (DAA means “days after application”). For example, the efficiency of products has been measured 53 and 58 days after application to the field of oilseed rape. These intervals following application of the composition are necessary and adequate to enable the ultimate efficiency of the trialed products to be judged.

| Structure (SMILES) | percentage of weeds eliminated, Trial No. ALS12H48 -05 ([1]; crop OSR) [%] | percentage of weeds eliminated, Trial No. ALS11H42-02 ([1]; crop OSR, 46 DAA) [%] | percentage of weeds eliminated, Trial No. ALS11H56-01 ([1]; crop OSR) [%] | Maximum percentage of weeds eliminated [1] [%] | Minimum percentage of weeds eliminated [1] [%] | percentage of weeds eliminated, Trial ALS11H56-02 [2] [%] | percentage of weeds eliminated, Trial ALS11H56-04 [2] [%] | percentage of weeds eliminated, Trial ALS12H56-03 [2] [%] | Maximum percentage of weeds eliminated [2] [%] | Minimum percentage of weeds eliminated [2] [%] |
| --- | --- | --- | --- | --- | --- | --- | --- | --- | --- | --- |
| CCOC(=O)[C@@H](C)Oc1ccc(Oc2cnc3cc(Cl)ccc3n2)cc1 [quizalofop-p-ethyl] | 50 | 30 | 63 | 63 | 30 | 26 | 76 | 68 | 76 | 26 |
| CCCCOC(=O)[C@@H](C)Oc1ccc(Oc2ccc(C(F)(F)F)cn2)cc1 [flauzifop-p-butyl] | 52 |  | 76 | 76 | 52 | 3 | 66 | 46 | 66 | 3 |
